IC50 data for 25 compounds are collected here from US8569344B2, “N-piperidinyl acetamide derivatives as calcium channel blockers” (Zalicus Pharmaceuticals Ltd., priority 2008, dated 2013).

Bounds are passed on as bounds.

The target in this assay is T1, human α1G T-type channels (Homo sapiens, UniProt O43497).
T1 construct: expressed in transfected cells; host or cells: HEK 293
The assay is described as follows: T-type calcium channel block, whole cell patch clamp in HEK cells (α1G). Type of assay: cell-based. To be noted: HEK cells, patch clamp, mainly non-inactivated protocol; values above 10 μM shown as 10 μM, below 0.30 μM shown as 0.30 μM; read-out: T-type Calcium Channel Block α1G IC50. How it is done:
T-type calcium channel blocking activity was assayed in human embryonic kidney cells, HEK 293, stably transfected with the T-type calcium channel subunits. Briefly, cells were cultured in Dulbecco's modified eagle medium (DMEM) supplemented with 10% fetal bovine serum, 200 U/ml penicillin and 0.2 mg/ml streptomycin at 37° C. with 5% CO2. At 85% confluency cells were split with 0.25% trypsin/1 mM EDTA and plated at 10% confluency on glass coverslips. […] Fresh DMEM was supplied and the cells transferred to 28° C./5% CO2. Cells were incubated for 1 to 2 days prior to whole cell recording.
Standard patch-clamp techniques were employed to identify blockers of T-type currents. Briefly, previously described HEK cell lines stably expressing human α1G, α1H and α1I T-type channels were used for all the recordings (passage #: 4-20, 37° C., 5% CO2). Whole cell patch clamp experiments were performed using an Axopatch 200B amplifier (Axon Instruments, Burlingame, Calif.) linked to a personal computer equipped with pCLAMP software. Data were analyzed using Clampfit (Axon Instruments) and SigmaPlot 4.0 (Jandel Scientific). To obtain T-type currents, plastic dishes containing semi-confluent cells were positioned on the stage of a ZEISS AXIOVERT S100 microscope after replacing the culture medium with external solution (see below). Whole-cell patches were obtained using pipettes (borosilicate glass with filament, O.D.: 1.5 mm, I.D.: 0.86 mm, 10 cm length), fabricated on a SUTTER P-97 puller with resistance values of ˜5 MΩ (see below for internal solution).
In the non-inactivating protocol, the holding potential is set at −110 mV and with a pre-pulse at −100 mV for 1 second prior to the test pulse at −40 mV for 50 ms.
Test compounds were dissolved in external solution, 0.1-0.01% DMSO. After ˜10 min rest, they were applied by gravity close to the cell using a WPI microfil tubing. The “non-inactivated” pre-pulse was used to examine the resting block of a compound. The “inactivated” protocol was employed to study voltage-dependent block. […] Values are shown in μM and values above 10 μM are simply represented as 10 μM.
(In general: The patch-clamp technique gives a direct electrical read-out from membranes.)

T1 sequence (O43497 whole entry): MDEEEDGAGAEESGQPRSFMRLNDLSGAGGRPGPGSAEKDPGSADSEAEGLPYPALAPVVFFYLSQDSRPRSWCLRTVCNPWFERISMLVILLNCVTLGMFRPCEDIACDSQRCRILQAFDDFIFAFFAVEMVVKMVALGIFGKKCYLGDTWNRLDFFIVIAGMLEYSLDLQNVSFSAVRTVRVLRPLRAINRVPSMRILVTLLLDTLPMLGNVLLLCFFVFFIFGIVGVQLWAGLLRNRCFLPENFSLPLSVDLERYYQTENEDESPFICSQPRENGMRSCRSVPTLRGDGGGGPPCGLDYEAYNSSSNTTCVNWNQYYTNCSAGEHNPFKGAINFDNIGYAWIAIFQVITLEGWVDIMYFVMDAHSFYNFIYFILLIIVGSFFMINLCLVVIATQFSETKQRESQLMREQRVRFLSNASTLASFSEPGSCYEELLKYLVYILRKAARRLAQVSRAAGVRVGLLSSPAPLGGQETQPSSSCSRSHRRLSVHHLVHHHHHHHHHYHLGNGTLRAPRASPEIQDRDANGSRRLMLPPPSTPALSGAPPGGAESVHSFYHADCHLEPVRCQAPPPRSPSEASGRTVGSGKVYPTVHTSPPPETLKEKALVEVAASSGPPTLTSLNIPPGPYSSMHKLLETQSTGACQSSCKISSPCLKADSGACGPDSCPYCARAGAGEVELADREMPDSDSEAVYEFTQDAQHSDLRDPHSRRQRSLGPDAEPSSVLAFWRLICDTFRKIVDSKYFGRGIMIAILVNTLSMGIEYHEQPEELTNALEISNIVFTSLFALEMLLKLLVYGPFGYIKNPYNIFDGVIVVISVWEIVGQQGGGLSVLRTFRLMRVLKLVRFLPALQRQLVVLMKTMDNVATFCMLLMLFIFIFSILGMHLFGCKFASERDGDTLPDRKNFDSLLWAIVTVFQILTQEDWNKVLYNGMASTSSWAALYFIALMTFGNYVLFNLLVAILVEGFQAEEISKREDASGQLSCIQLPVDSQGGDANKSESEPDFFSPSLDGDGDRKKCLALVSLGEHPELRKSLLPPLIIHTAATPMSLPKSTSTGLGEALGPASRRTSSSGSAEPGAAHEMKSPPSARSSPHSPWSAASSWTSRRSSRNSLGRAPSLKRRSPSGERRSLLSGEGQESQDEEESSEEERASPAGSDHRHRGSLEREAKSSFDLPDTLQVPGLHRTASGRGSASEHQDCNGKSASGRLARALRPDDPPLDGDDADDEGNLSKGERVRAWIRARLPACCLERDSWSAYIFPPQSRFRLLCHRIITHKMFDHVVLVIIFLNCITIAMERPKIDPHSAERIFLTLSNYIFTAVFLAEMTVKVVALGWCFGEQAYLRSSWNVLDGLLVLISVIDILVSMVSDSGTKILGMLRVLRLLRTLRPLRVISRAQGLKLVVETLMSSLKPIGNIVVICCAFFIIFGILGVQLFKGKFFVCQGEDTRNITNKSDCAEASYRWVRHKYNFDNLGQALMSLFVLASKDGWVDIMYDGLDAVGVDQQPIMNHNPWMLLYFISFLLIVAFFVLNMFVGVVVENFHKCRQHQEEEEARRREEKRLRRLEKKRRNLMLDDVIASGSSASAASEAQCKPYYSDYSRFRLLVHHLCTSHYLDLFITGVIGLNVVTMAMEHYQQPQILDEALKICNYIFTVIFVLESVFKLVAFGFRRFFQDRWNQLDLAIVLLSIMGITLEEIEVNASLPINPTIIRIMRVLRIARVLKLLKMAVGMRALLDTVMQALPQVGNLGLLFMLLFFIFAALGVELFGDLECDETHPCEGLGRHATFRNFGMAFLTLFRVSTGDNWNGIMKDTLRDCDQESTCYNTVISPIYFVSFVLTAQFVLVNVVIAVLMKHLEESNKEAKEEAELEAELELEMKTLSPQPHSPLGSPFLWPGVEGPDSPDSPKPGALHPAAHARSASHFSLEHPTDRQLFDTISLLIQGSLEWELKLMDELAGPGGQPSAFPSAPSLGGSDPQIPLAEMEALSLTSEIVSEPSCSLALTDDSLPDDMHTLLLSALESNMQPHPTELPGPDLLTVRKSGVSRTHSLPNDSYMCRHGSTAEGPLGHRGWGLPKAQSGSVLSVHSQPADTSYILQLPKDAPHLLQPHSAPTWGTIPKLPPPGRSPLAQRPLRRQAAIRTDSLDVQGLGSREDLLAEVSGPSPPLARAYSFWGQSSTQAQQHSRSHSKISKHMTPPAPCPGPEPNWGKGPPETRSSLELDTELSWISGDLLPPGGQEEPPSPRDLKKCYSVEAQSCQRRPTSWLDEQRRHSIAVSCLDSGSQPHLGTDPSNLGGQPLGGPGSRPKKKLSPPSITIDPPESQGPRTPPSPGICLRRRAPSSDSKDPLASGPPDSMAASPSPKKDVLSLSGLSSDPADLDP

On to `CCS(=O)(=O)N1CCC[C@H]1CN1CCC(CNC(=O)c2cc(F)cc(C(F)(F)F)c2)CC1` [Compound 417], for which the IC50 is 9.49 µM. Under `O=C(NCC1CCN(C[C@@H]2CCCN2C(=O)CCC(F)(F)F)CC1)c1cc(F)cc(C(F)(F)F)c1` [Compound 426, (S)-3-fluoro-N-((1-((1-(4,4,4-trifluorobutanoyl)pyrrolidin-2-yl)methyl)piperidin-4-yl)methyl)-5-(trifluoromethyl)benzamide] stands less than 0.3 µM. The value for `O=C(NCC1CCN(C(=O)CNCCCN2CCOCC2)CC1)c1cc(F)cc(C(F)(F)F)c1` [Compound 270, 3-fluoro-N-((1-(2-(3-morpholinopropylamino)acetyl)piperidin-4-yl)methyl)-5-(trifluoromethyl)benzamide] was greater than 10 µM; that for `NC1(C(=O)N2CCC(CC(=O)Nc3cc(C(F)(F)F)cc(C(F)(F)F)c3)CC2)CCOCC1` [Compound 194, 2-(1-(4-aminotetrahydro-2H-pyran-4-carbonyl)piperidin-4-yl)-N-(3,5-bis(trifluoromethyl)phenyl)acetamide] was greater than 10 µM; that for `O=C(NCC1CCN(C[C@@H]2CCCN2S(=O)(=O)CC2CC2)CC1)c1cc(F)cc(C(F)(F)F)c1` [Compound 421, (S)-N-((1-((1-(cyclopropylmethylsulfonyl)pyrrolidin-2-yl)methyl)piperidin-4-yl)methyl)-3-fluoro-5-(trifluoromethyl)benzamide] was 4.04 µM.

Turning to `COc1ccc(C(=O)NCC2CCN(CCNS(=O)(=O)C(F)(F)F)CC2)cc1OC` [Compound 332, 3,4-dimethoxy-N-((1-(2-(trifluoromethylsulfonamido)ethyl)piperidin-4-yl)methyl)benzamide], the concentration for half-maximal inhibition (IC50) is greater than 10 µM. As for `CC(C)(C)C(=O)N1CCC[C@H]1CN1CCC(CNC(=O)c2cc(F)cc(C(F)(F)F)c2)CC1` [Compound 423, (S)-3-fluoro-N-((1-((1-pivaloyl-pyrrolidin-2-yl)methyl)piperidin-4-yl)methyl)-5-(trifluoromethyl) benzamide], the half-inhibitory concentration (IC50) worked out at 2.08 µM. Consider `CC(C)(C)C(N)CN1CCC(CC(=O)NC(c2cccc(F)c2)c2cccc(F)c2)CC1` (stereo not shown) [Compound 217, 2-(1-(2-amino-3,3-dimethylbutyl)piperidin-4-yl)-N-(bis(3-fluorophenyl)methyl)acetamide], for which the concentration for half-maximal inhibition (IC50) turned out to be 5.82 µM. The value for `CC(C)(C)CC(=O)N1CCC[C@H]1CN1CCC(CNC(=O)c2cc(F)cc(C(F)(F)F)c2)CC1` [Compound 424, (S)-N-((1-((1-(3,3-dimethylbutanol)pyrrolidin-2-yl)methyl)piperidin-4-yl)methyl)-3-fluoro-5-(trifluoromethyl)benzamide] was 0.44 µM.

Take `CC(C)(C)C(O)CN1CCC(CC(=O)NCCc2ccc(F)cc2)CC1` (stereo not shown) [Compound 177, N-(4-fluorophenethyl)-2-(1-(2-hydroxy-3,3-dimethylbuyl)piperidin-4-yl)acetamide]: the IC50 was greater than 10 µM. The value for `COC(=O)NC(CN1CCC(CC(=O)NCc2cc(Cl)cc(Cl)c2)CC1)C(C)(C)C` (stereo not shown) [Compound 223, methyl 1-(4-(2-(3,5-dichlorobenzyl-amino)-2-oxoethyl)piperidin-1-yl)-3,3-dimethylbutan-2-ylcarbamate] was 8.15 µM. For the compound `CC(C)(C)NC(=O)CN1CCC(CNC(=O)C2(c3ccc(Cl)cc3)CCCC2)CC1` [Compound 428, N-((1-(2-(tert-buylamino)-2-oxoethyl)piperidin-4-yl)methyl)-1-(4-chlorophenyl)cyclopentanecarboxamide], the IC50 was less than 0.3 µM.

In the case of `CC(C)(C)C(CN1CCC(CC(=O)NCc2cc(Cl)cc(Cl)c2)CC1)NS(=O)(=O)C1CC1` (stereo not shown) [Compound 209, 2-(1-(2-(cyclopropanesulfonamido)-3,3-dimethylbutyl)piperidin-4-yl)-N-(3,5-dichlorobenzyl)acetamide], the IC50 worked out at 8.6 µM. For the compound `CN(CC1CCN(CCNC(=O)CC(C)(C)C)CC1)C(=O)c1cc(F)cc(C(F)(F)F)c1` [Compound 413, N-((1-(2-(3,3-dimethylbutanamido)ethyl)piperidin-4-yl)methyl)-3-fluoro-N-methyl-5-(trifluoromethyl)benzamide], the IC50 is greater than 10 µM. The value for `O=C(NCC1CCN(CCNC(=O)C2CCCC2)CC1)c1cc(Br)cc(C(F)(F)F)c1` [Compound 407, 3-bromo-N-((1-(2-(cyclopentanecarboxamido)ethyl)piperidin-4-yl)methyl)-5-(trifluoromethyl)benzamide] was less than 0.3 µM. The value for `COc1cc(F)cc(C(=O)NCC2CCN(CCNC(=O)C3CCCC3)CC2)c1` [Compound 396, N-((1-(2-(cyclopentanecarboxamido)ethyl)piperidin-4-yl)methyl)-3-fluoro-5-methoxybenzamide] was 2.91 µM; that for `O=C(NCC1CCN(C[C@@H]2CCCN2S(=O)(=O)C2CCCC2)CC1)c1cc(F)cc(C(F)(F)F)c1` [Compound 420, (S)-N-((1-((1-(cyclopentylsulfonyl)pyrrolidin-2-yl)methyl)piperidin-4-yl)methyl)-3-fluoro-5-(trifluoromethyl)benzamide] was 0.7 µM.

With `O=C(NCC1CCN(CCNC(=O)C2CCCC2)CC1)c1cc(Cl)cc(Br)c1` [Compound 406, 3-bromo-5-chloro-N-((1-(2-(cyclopentanecarboxamido)ethyl)piperidin-4-yl)methyl)benzamide], the IC50 was less than 0.3 µM. The value for `CC(C)(C)OC(=O)NCCN1CCC(CNC(=O)c2cccc(OC(C)(C)C)c2)CC1` [Compound 50, tert-butyl 2-(4-((3-tert-butoxybenzamido)methyl)piperidin-1-yl)ethylcarbamate] was 8.97 µM; that for `CC(C)(C)NC(=O)CN1CCC(CNC(=O)c2cc(Br)cc(OC(F)(F)F)c2)CC1` [Compound 429, 3-bromo-N-((1-(2-(tert-butylamino)-2-oxoethyl)piperidin-4-yl)methyl)-5-(trifluoromethoxy)benzamide] was less than 0.3 µM; that for `O=C(NCC1CCN(CCNC(=O)C2CCCC2)CC1)c1cc(Br)cc(Br)c1` [Compound 409, 3,5-dibromo-N-((1-(2-(cyclopentanecarboxamido)ethyl)piperidin-4-yl)methyl)benzamide] was less than 0.3 µM. The value for `CCS(=O)(=O)NC(CN1CCC(CC(=O)NC(c2cccc(F)c2)c2cccc(F)c2)CC1)C(C)(C)C` (stereo not shown) [Compound 220, N-(bis(3-fluorophenyl)methyl)-2-(1-(2-(ethylsulfonamido)-3,3-dimethylbutyl)piperidin-4-yl)acetamide] was 6.91 µM. Under `O=C(NCC1CCN(CCNS(=O)(=O)C2CC2)CC1)c1cc(F)cc(Cl)c1` [Compound 390, 3-chloro-N-((1-(2-(cyclopropanesulfonamido)ethyl)piperidin-4-yl)methyl)-5-fluoro-benzamide] stands less than 0.3 µM. `CC(C)(C)C(O)C(=O)N1CCC(CNC(=O)c2cc(C(F)(F)F)cc(C(F)(F)F)c2)CC1` (stereo not shown) [Compound 91, N-((1-(2-hydroxy-3,3-dimethylbutanoyl)piperidin-4-yl)methyl)-3,5-bis(trifluoromethyl)benzamide]: the IC50 is greater than 10 µM. Under `CC(C)(C)OC(=O)NCCN1CCC(CNC(=O)c2cccc(S(C)(=O)=O)c2)CC1` [Compound 45, tert-butyl 2-(4-((3-(methylsulfonyl)benzamido)methyl)piperidin-1-yl)ethylcarbamate] stands greater than 10 µM.

The IC50 is the concentration that gives 50% inhibition.
